The supplement of paper PMC10307832

Columns and labels:
Test in all cases: relative viability (nuclei count vs DMSO), 5 days (fraction); higher = more cells survive
[1] = compound: CC1=CC=C(C=C1)C(=O)CN2C3=C(CCCC3)SC2=N [Pifithrin_alpha] + C[C@@H](Oc1cc(-c2cnn(C3CCNCC3)c2)cnc1N)c1c(Cl)ccc(F)c1Cl [Crizotinib] (partner 1 µM)
Method in brief: (§1)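 One day after seeding in 1536-well plates, lung cancer cell lines were dosed by pin tool. Dosing was either single-drug or a fixed anchor-drug dose plus five library-drug doses (not always all listed) in √10 steps. After 5 days, nuclei were stained in one fix-and-stain step and counted on 4× images, and relative viability is the nuclei count of treated wells over that of vehicle wells, given as the median of duplicate plates.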

[2] = compound: CC1=CC=C(C=C1)C(=O)CN2C3=C(CCCC3)SC2=N [Pifithrin_alpha] + O=C(CCCCCCC(=O)Nc1ccccc1)NO [Vorinostat] (partner 1 µM)
Method in brief: as §1

[3] = compound: Nc1nc(Nc2ccc3c(c2)CC[C@@H](N2CCCC2)CC3)nn1-c1cc2c(nn1)-c1ccccc1CCC2 [Bemcentinib] + CC1(C)CCC(c2ccc(Cl)cc2)=C(CN2CCN(c3ccc(C(=O)NS(=O)(=O)c4ccc(N[C@H](CCN5CCOCC5)CSc5ccccc5)c(S(=O)(=O)C(F)(F)F)c4)cc3)CC2)C1 [Navitoclax] (partner 0.5 µM)
Method in brief: as §1

[4] = compound: Nc1nc(Nc2ccc3c(c2)CC[C@@H](N2CCCC2)CC3)nn1-c1cc2c(nn1)-c1ccccc1CCC2 [Bemcentinib] + O=C(c1cc(Cc2n[nH]c(=O)c3ccccc23)ccc1F)N1CCN(C(=O)C2CC2)CC1 [Olaparib] (partner 8 µM)
Method in brief: as §1

Cell Line | relative viability ([1]; first compound 1 µM) | relative viability ([1]; first compound 3.162 µM) | relative viability ([1]; first compound 10 µM) | relative viability ([1]; first compound 31.62 µM) | relative viability ([1]; first compound 100 µM) | relative viability ([2]; first compound 1 µM) | relative viability ([2]; first compound 3.162 µM) | relative viability ([2]; first compound 10 µM) | relative viability ([2]; first compound 31.62 µM) | relative viability ([2]; first compound 100 µM) | relative viability ([3]; first compound 0.04 µM) | relative viability ([3]; first compound 0.1265 µM) | relative viability ([3]; first compound 0.4 µM) | relative viability ([3]; first compound 1.265 µM) | relative viability ([3]; first compound 4 µM) | relative viability ([4]; first compound 0.04 µM) | relative viability ([4]; first compound 0.1265 µM) | relative viability ([4]; first compound 0.4 µM) | relative viability ([4]; first compound 1.265 µM) | relative viability ([4]; first compound 4 µM)
RERF-LC-KJ | 0.824 | 0.69 | 0.754 | 0.696 | 0.659 | 0.329 | 0.627 | 0.547 | 0.448 | 0.488 | 0.815 | 0.805 | 0.983 | 1.01 | 0.947 | 0.873 | 0.928 | 0.896 | 0.976 | 0.782
NCI-H2228 | 0.3 | 0.424 | 0.432 | 0.263 | 0.376 | 0.831 | 0.663 | 0.721 | 0.387 | 0.374 |  | 1.06 | 1.15 | 0.909 | 1.08 | 0.379 | 0.616 | 0.593 | 0.707 | 0.749
A549 | 0.989 | 0.761 | 0.817 | 0.552 | 0.799 |  |  |  |  |  | 1.2 | 1.27 | 1.32 | 1.29 | 1.2 | 0.264 | 0.279 | 0.323 | 0.167 | 0.342
NCI-H358 | 0.616 | 0.589 | 0.516 | 0.428 | 0.625 | 0.733 | 0.708 | 0.867 | 0.344 | 0.545 |  |  |  |  |  | 0.59 | 0.622 | 0.598 | 0.593 | 0.669
NCI-H2342 |  |  |  |  |  | 0.746 | 0.632 | 0.769 | 0.815 | 0.741 |  |  |  |  |  | 0.43 | 0.441 | 0.359 | 0.486 | 0.463
A-427 | 1 | 0.85 | 0.857 | 0.574 | 0.932 | 0.827 | 0.83 | 0.807 | 0.762 | 0.728 |  | 0.946 | 0.826 | 0.909 | 1.07 | 0.737 | 0.783 | 0.853 | 0.72 | 0.71
NCI-H661 | 1.16 | 0.93 | 0.908 | 1.17 | 0.988 | 0.8 | 0.805 | 0.788 | 0.662 | 0.771 |  |  |  |  |  | 0.692 | 0.782 | 0.789 | 0.738 | 0.763
NCI-H522 |  |  |  |  |  | 0.777 | 0.992 | 0.993 | 0.759 | 0.919 |  |  |  |  |  | 0.739 | 0.696 | 0.593 | 0.556 | 0.652
NCI-H1563 | 0.907 | 0.846 | 0.714 | 0.832 | 0.731 |  |  |  |  |  |  |  |  |  |  |  |  |  |  | 
NCI-H1703 | 0.577 | 0.531 | 0.803 | 0.455 | 1.05 |  |  |  |  |  | 1.08 | 1.03 | 1.34 | 1.04 | 0.85 | 0.34 | 0.447 | 0.465 | 0.389 | 0.357
Calu-6 | 0.944 | 0.742 | 0.813 | 0.605 | 0.85 |  |  |  |  |  | 0.856 | 0.856 | 1.01 | 0.871 | 0.973 | 0.525 | 0.573 | 0.614 | 0.535 | 0.57
NCI-H1792 | 0.869 | 0.821 | 0.798 | 0.612 | 0.573 |  |  |  |  |  | 0.668 | 0.57 | 0.859 | 0.697 | 0.665 | 0.496 | 0.353 | 0.538 | 0.391 | 0.498
EBC-1 | 0.187 | 0.21 | 0.168 | 0.16 | 0.152 |  |  |  |  |  | 0.377 | 0.404 | 0.431 | 0.394 | 0.422 | 0.773 | 0.73 | 0.693 | 0.691 | 0.754
SW 900 |  |  |  |  |  | 0.527 | 0.277 | 0.432 | 0.36 | 0.377 |  |  |  |  |  | 0.841 | 1.17 | 0.804 | 0.769 | 0.817
NCI-H1395 |  |  |  |  |  |  | 0.662 | 0.723 |  | 0.661 | 1.11 | 1.35 | 1.05 | 1.23 | 1.19 |  | 0.474 | 0.462 | 0.497 | 0.463
NCI-H1299 | 0.997 | 0.992 | 1.05 | 0.76 | 0.897 |  |  |  |  |  | 1.02 | 1.04 | 1.05 | 1.04 | 1 | 1.01 | 1.02 | 0.961 | 1 | 0.93
LCLC-103H | 1.06 | 1.04 | 1.01 | 0.897 | 1.07 | 0.565 | 0.884 | 0.782 | 0.733 | 0.761 |  |  |  |  |  | 0.802 | 0.811 | 0.796 | 0.86 | 0.783
NCI-H1793 |  |  |  |  |  | 0.674 | 0.571 | 0.655 | 0.753 | 0.46 | 0.438 | 0.44 | 0.425 | 0.545 | 0.427 | 0.852 | 1.16 | 0.987 | 0.961 | 0.842
ABC-1 | 1.09 | 0.999 | 1.22 | 0.817 | 0.597 |  | 1.25 | 0.844 | 0.622 | 0.765 |  |  |  |  |  | 0.627 | 0.843 | 0.855 | 0.774 | 0.792
